This experiment has as its system Dentine. Description: Bio-modification of human mid coronal dentine assessed as fold change in complex modulus at 0.2% w/v incubated for 1 hrs by dynamic mechanical analysis. In kind it is functional.
Turning to `Oc1cc(O)c(C[C@@H]2Oc3c4c(cc(O)c3[C@H]2c2ccc(O)c(O)c2)O[C@H](c2ccc(O)c(O)c2)[C@@H](O)C4)c(O)c1`, the “fold change (FC)” value is 4.2.
With `Oc1cc(O)c(C[C@H](O)[C@H](c2ccc(O)c(O)c2)c2c(O)cc(O)c3c2O[C@@H](c2ccc(O)c(O)c2)[C@@H](O)C3)c(O)c1` the figure was 3.3.
Take `Oc1cc(O)c2c(c1)O[C@H]([C@H](c1ccc(O)c(O)c1)c1c(O)cc(O)c3c1O[C@H](c1ccc(O)c(O)c1)[C@@H](O)C3)C2`: the “fold change (FC)” value was found to be 5.2.
For the molecule `Oc1cc(O)c(C[C@H](O)[C@H](c2ccc(O)c(O)c2)c2c(O)cc(O)c3c2O[C@H](c2ccc(O)c(O)c2)[C@@H](O)C3)c(O)c1`, the “fold change (FC)” value was found to be 3.3.
With `Oc1cc(O)c(C[C@H](O)[C@H](c2ccc(O)c(O)c2)c2c(O)cc(O)c3c2O[C@@H](c2ccc(O)c(O)c2)[C@H](O)C3)c(O)c1` the figure was 3.3.

The values are drawn from ChEMBL document CHEMBL5215000, “Seco B-Type Oligomers from Pinus massoniana Expand the Procyanidin Chemical Space and Exhibit Dental Bioactivity” (2022).
